In PubChem BioAssay (NCI) one finds TGI and GI50 data, which are given here for 14 compounds.

What all share (assay): NCI anticancer screen, dose series, 48 h
The subject of assay [1] is SK-OV-3 ovarian.
Assay [2] relates to UO-31 renal.
The subject of assay [3] is OVCAR-3 ovarian.
Assay [4] has as its system A498 renal.
Assay [5] deals with NCI-H226 lung.
The test system of assay [6] is SK-MEL-28 melanoma.
The test system of assay [7] is SK-MEL-5 melanoma.
Assay [8] relates to MOLT-4 leukemia.
The test system of assay [9] is NCI-H460 lung.
Assay [10] relates to A549 NSCLC.

Structures are written as SMILES.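 Five compound concentrations were applied to cells in 96-well plates for 48 hours; endpoints were derived by simple linear interpolation of the resulting dose-response curve. GI50 is the concentration that inhibits growth by half. TGI marks complete inhibition of growth.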

With `COC1CC(OC2OC(CO)C(O)C(O)C2O)/C(=C\C#N)C(O)C1OC` (stereo not given), the TGI in [1], in assay [2], in [3], in assay [4], in [5] and in assay [6] was > 100 µM each time. In addition, the TGI in assay [7], in assay [8], in [9] and in [10] was > 100 µM throughout.

On to `CC1CN(CCO)CC(C)O1` (stereo not given), for which the TGI in assay [1], in [2], in [3], in [4], in assay [5] and in assay [6] was > 100 µM throughout. In addition, the TGI in assay [7], in assay [8], in assay [9] and in assay [10] was > 100 µM each time.

For `C=C1C(=O)OC(CCCCCCCC)C1C(=O)O` (stereo not given), the GI50 in assay [1] was 34.3 µM; in [2], 11.7 µM; in [3], 7.66 µM; in [4], 17.4 µM; in [5], 19.8 µM; in [6] it was 15 µM. Also, the GI50 in [7] is 16.1 µM; in [8] it was 22.2 µM; in [9] it was 18.6 µM; in [10], 23.6 µM. In addition, the TGI is > 77.9 µM in assay [1]; 25.6 µM in assay [2]; 19.5 µM in [3]; 33.3 µM in assay [4]; 48.1 µM in assay [5]; 29.1 µM in assay [6]. The TGI in assay [7] was 29.9 µM; in [8], 54 µM; in assay [9], 37.5 µM; in assay [10], > 67.6 µM.

Turning to `O=C(Nc1ccc(Cl)c(Cl)c1)Nc1ccc(Cl)c([N+](=O)[O-])c1`, the GI50 in assay [1] was 2.01 µM; in [2], 0.83 µM; in assay [3], 0.889 µM; in [4], 1.37 µM; in [5], 1.3 µM; in [6], 1.3 µM. The GI50 is 2 µM in assay [7], 0.925 µM in assay [8], 0.888 µM in [9] and 1.41 µM in assay [10]. The TGI came to 5.89 µM in [1]; 2.92 µM in assay [2]; 3.66 µM in assay [3]; 4.47 µM in assay [4]; 5.54 µM in assay [5]; 4.62 µM in [6]. Also, the TGI is 5.08 µM in [7], > 25 µM in [8], 3.03 µM in assay [9] and 8.27 µM in assay [10].

With `COc1ccc(NC(=O)c2ccc(NC3=C(Cl)C(=O)N(Cc4ccccc4)C3=O)cc2)cc1`, the GI50 in assay [1] was 18.4 µM; in assay [2], 2.66 µM; in [3], 2.11 µM; in assay [4], 16.8 µM; in assay [5] it was 14.5 µM; in assay [6], 10.1 µM. Further, the GI50 in [7] was 10 µM; in assay [8] it was 2.6 µM; in assay [9] it was 53.1 µM; in [10] it was 10.4 µM. Moreover, the TGI was 36.2 µM in assay [1]; 11.3 µM in assay [2]; 6.12 µM in assay [3]; 34.8 µM in assay [4]; 35.9 µM in assay [5]; 31.6 µM in [6]. Also, the TGI was 32.1 µM in [7], > 100 µM in [8], > 100 µM in [9] and 29.9 µM in assay [10].

Consider `N#Cc1c([N+](=O)[O-])cc(C(F)(F)F)cc1[N+](=O)[O-]`, for which the TGI was 33.2 µM in assay [1]; 33.5 µM in assay [2]; 30.9 µM in assay [3]; 32.9 µM in assay [4]; 37.3 µM in [5]; 21.2 µM in assay [6]. The TGI stood at 23.8 µM in assay [7], 4.95 µM in assay [8], 40.3 µM in assay [9] and 37.6 µM in assay [10].

As for `O=C(Nc1nc2ncn(CCOC(=O)c3ccccc3)c2c(=O)[nH]1)c1ccccc1`, the TGI in assay [1] was > 79.9 µM; in assay [2] it was > 100 µM; in assay [3], > 100 µM; in assay [4], > 100 µM; in [5], > 100 µM; in assay [6] it was > 100 µM. The TGI in [7], in assay [8], in assay [9] and in [10] was > 100 µM throughout.

Regarding `CCC12C=CCN3CC[C@]4(C(=C(C(=O)OC)[C@@H]1Nc1ncnc5c1ncn5C1OC(COC(C)=O)C(OC(C)=O)C1OC(C)=O)Nc1ccccc14)C32` (stereo not given in full), the TGI was determined as 5.32 µM in [1]; 13.2 µM in assay [2]; 4.3 µM in assay [3]; 4.56 µM in [4]; 5.22 µM in assay [5]; 10.8 µM in [6]. Further, the TGI was found to be 8.47 µM in assay [7], 25.3 µM in assay [8], 5.99 µM in [9] and 13.2 µM in [10].

As to `FC(F)(F)c1ccc2nc(-c3nc(-c4ccccc4)n4ccccc34)[nH]c2c1`, the GI50 in [1] was 1.86 µM; in assay [2] it was 4.37 µM; in [3] it was 4.08 µM; in assay [4], 1.69 µM; in assay [5] it was 10.9 µM; in assay [6], 9.22 µM. Also, the GI50 in assay [7] was 1.9 µM; in assay [8], 28.3 µM; in [9], 2.93 µM; in [10], 3.12 µM. The TGI in [1] came out at 3.53 µM; in [2], 18.6 µM; in assay [3] it was 16.3 µM; in [4], 5.85 µM; in [5], 32.9 µM; in assay [6], 31.6 µM. The TGI was 5.55 µM in [7], > 100 µM in assay [8], 11.2 µM in assay [9] and 11.1 µM in [10].

In the case of `C=C1C(=O)OC2C1C(OC(=O)/C(=C/C)COC(C)=O)CC1(CO1)C1C(OC(=O)/C(=C/C)CO)C=C(C)C21` (stereo not given), the TGI in [1] is 31.3 µM; in assay [2], 11.2 µM; in assay [3] it was 12.2 µM; in assay [4] it was 8.94 µM; in [5], 4.18 µM; in assay [6], 4.16 µM. Moreover, the TGI in [7] stood at 5.05 µM; in [8], 2.24 µM; in [9] it was 28.3 µM; in [10], 24.8 µM.

`COc1ccc(C(=O)CC2(O)C(=O)Nc3c(Cl)ccc(Cl)c32)cc1` (stereo not given): the GI50 in assay [1] was 2.89 µM; in assay [2], 6.65 µM; in assay [3], 0.701 µM; in assay [4], 0.599 µM; in assay [5] it was 30.6 µM; in assay [6], 6.22 µM. For the same compound, the GI50 in assay [7] is 1.01 µM; in assay [8], 3.18 µM; in assay [9], 0.97 µM; in assay [10] it was 1.55 µM. Moreover, the TGI in assay [1] was > 100 µM; in [2], > 100 µM; in assay [3] it was 3.75 µM; in assay [4] it was 7.02 µM; in assay [5], > 100 µM; in assay [6], > 100 µM. For the same compound, the TGI was 18.8 µM in assay [7], > 78.5 µM in assay [8], 40.4 µM in [9] and > 100 µM in assay [10].

As for `O=C1CCCC1C(=O)Nc1ccc2ccccc2c1` (stereo not given), the TGI in [1], in [2], in [3], in [4], in assay [5] and in assay [6] was > 100 µM in each case. Further, the TGI in [7], in [8], in [9] and in assay [10] was > 100 µM in each case.

Take `CCOC(=O)c1cnc2ccc(Cl)cc2c1NCCCN(C)C`: the GI50 in [1] was 34.9 µM; in assay [2], 16.3 µM; in assay [3], 28.1 µM; in assay [4], 15.6 µM; in assay [5], 19.9 µM; in [6], 22.9 µM. The GI50 in assay [7] was 16 µM; in [8], 16.3 µM; in assay [9], 22.2 µM; in assay [10] it was 21.2 µM. Further, the TGI in assay [1] is > 100 µM; in [2] it was 57 µM; in assay [3], 97.7 µM; in assay [4], 37.8 µM; in assay [5] it was 92.2 µM; in [6], 56.3 µM. The TGI is 30.4 µM in assay [7], 63.5 µM in assay [8], 82.7 µM in [9] and 67.7 µM in [10].

As for `CCOC(=O)c1cc2c(n1Cc1cccc(OC)c1)-c1oncc1CC2`, the GI50 in assay [1] is 2.42 µM; in [2], 1.91 µM; in assay [3], 0.38 µM; in [4] it was 0.156 µM; in assay [5], 7.46 µM; in assay [6] it was 0.97 µM. For the same compound, the GI50 is 0.595 µM in [7], 1.16 µM in assay [8], 0.511 µM in assay [9] and 9.42 µM in [10]. The TGI in assay [1] was > 100 µM; in assay [2] it was 78.5 µM; in [3], 2.66 µM; in [4], 3.39 µM; in assay [5], > 100 µM; in [6], > 100 µM. The TGI is 11.3 µM in assay [7], > 100 µM in assay [8], > 100 µM in [9] and > 100 µM in assay [10].
